According to patent publication US10246496B2, “Potassium channel blockers and use thereof in the treatment of autoimmune diseases” (MONASH UNIVERSITY, priority 2014, dated 2019):

Legend:
[1] = target: T1, mKv1.3 (Mus musculus, UniProt P16390); assay: Whole-cell patch clamp electrophysiology, Kv1.3 channel currents; type: cell-based
T1 construct: expressed in transfected cells
From the text: Data are presented as mean±s.e.m.
Electrophysiological analysis—Cells were studied using the whole-cell configuration of a standard patch-clamp technique at RT. The bath solution contained (in mM): 160 NaCl, 4.5 KCl, 2 CaCl2, 1 MgCl2, 10 HEPES, pH 7.2, 300 mOsm. […] Kv currents were elicited by repeated 200 ms depolarising pulses from a holding potential of −80 mV to 40 mV, applied every 30 seconds. The Port-a-Patch patch clamp system (Nanion Technologies GmbH, Munich, Germany) and NPC-1 chips with 2-3.5 MΩ resistance were also utilised in conjunction. IC50 values of Kv blockers were calculated by fitting the Hill equation to the reduction of peak current measured at 40 mV.
Thus, both analogues have reduced affinity to K^+ channels and show a relatively low level of selectivity for Kv1.3 over Kv1.1. The implication is that neither Ser-3 nor Glu-3 was able to greatly discriminate between Pro377 in Kv1.3 and the corresponding Ala in Kv1.1.

[2] = target: Kv1.3 (Mus musculus, UniProt P16390); settings: literature values (Kalman 1998; Pennington 2009); spread = s.e.m.; read-out: Binding affinities (IC50) Kv1.3; cited from earlier work
Kv1.3, sequence (P16390 whole entry): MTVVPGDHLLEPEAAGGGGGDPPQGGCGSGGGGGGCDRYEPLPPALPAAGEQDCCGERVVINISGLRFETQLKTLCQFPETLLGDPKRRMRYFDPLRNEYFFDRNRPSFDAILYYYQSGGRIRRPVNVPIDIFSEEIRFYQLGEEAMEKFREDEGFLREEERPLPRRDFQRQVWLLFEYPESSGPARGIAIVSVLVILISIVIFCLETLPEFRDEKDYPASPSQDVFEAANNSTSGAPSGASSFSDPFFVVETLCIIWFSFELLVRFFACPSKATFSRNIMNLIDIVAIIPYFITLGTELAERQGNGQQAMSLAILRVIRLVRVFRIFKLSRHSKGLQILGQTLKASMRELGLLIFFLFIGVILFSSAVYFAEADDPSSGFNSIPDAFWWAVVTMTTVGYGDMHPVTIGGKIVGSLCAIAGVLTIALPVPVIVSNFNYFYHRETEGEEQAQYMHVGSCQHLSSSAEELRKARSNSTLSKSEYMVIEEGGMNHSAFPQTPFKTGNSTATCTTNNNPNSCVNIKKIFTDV

T1 sequence (P16390 whole entry): as above

Compound | IC50 [1] | higher affinity for Kv1.3 as compared to [ESSS]ShK ([1]; relative to [ESSS]ShK) | higher affinity for Kv1.3 than ShK-192 ([1]; relative to ShK-192) | IC50 [2]
CC[C@H](C)[C@@H]1NC(=O)[C@@H](NC(=O)[C@H](CO)NC(=O)[C@H](CCCNC(=N)N)NC(=O)[C@H](CO)NC(=O)[C@H](CO)NC(=O)[C@H](CCC(=O)O)NC(=O)[C@@H](N)CCC(=O)O)CSSC[C@@H](C(N)=O)NC(=O)[C@H]([C@@H](C)O)NC(=O)CNC(=O)[C@@H]2CSSC[C@@H]3NC(=O)[C@H](CCC(N)=O)NC(=O)[C@H](Cc4ccccc4)NC(=O)[C@H](C)NC(=O)[C@H]([C@@H](C)O)NC(=O)[C@H](CSSC[C@H](NC(=O)[C@H](Cc4ccccc4)NC(=O)[C@H](CO)NC(=O)[C@H](CC(C)C)NC(=O)[C@H](CCCNC(=N)N)NC(=O)[C@H](Cc4ccc(O)cc4)NC(=O)[C@H](CCCCN)NC(=O)[C@H](CCSC)NC(=O)[C@H](CO)NC(=O)[C@H](Cc4c[nH]cn4)NC(=O)[C@H](CCCCN)NC3=O)C(=O)N[C@@H](CCCNC(=N)N)C(=O)N[C@@H](CCCCN)C(=O)N[C@@H]([C@@H](C)O)C(=O)N2)NC(=O)[C@H](CCCNC(=N)N)NC(=O)[C@H](CO)NC(=O)[C@H](CCCCN)NC(=O)[C@@H]2CCCN2C(=O)[C@H]([C@@H](C)CC)NC(=O)[C@H]([C@@H](C)O)NC(=O)[C@H](CC(=O)O)NC1=O [[EESS]ShK] | 0.404 ± 0.058 nM | 1.6 fold | – | –
CC[C@H](C)[C@@H]1NC(=O)[C@@H](NC(=O)[C@H](CO)NC(=O)[C@H](CCCNC(=N)N)NC(=O)[C@H](CO)NC(=O)[C@H](CO)NC(=O)[C@H](Cc2c[nH]c3ccccc23)NC(=O)[C@@H](N)CCC(=O)O)CSSC[C@@H](C(=O)O)NC(=O)[C@H]([C@@H](C)O)NC(=O)CNC(=O)[C@@H]2CSSC[C@@H]3NC(=O)[C@H](CCC(N)=O)NC(=O)[C@H](Cc4ccccc4)NC(=O)[C@H](C)NC(=O)[C@H]([C@@H](C)O)NC(=O)[C@H](CSSC[C@H](NC(=O)[C@H](Cc4ccccc4)NC(=O)[C@H](CO)NC(=O)[C@H](CC(C)C)NC(=O)[C@H](CCCNC(=N)N)NC(=O)[C@H](Cc4ccc(O)cc4)NC(=O)[C@H](CCCCN)NC(=O)[C@H](CCSC)NC(=O)[C@H](CO)NC(=O)[C@H](Cc4c[nH]cn4)NC(=O)[C@H](CCCCN)NC3=O)C(=O)N[C@@H](CCCNC(=N)N)C(=O)N[C@@H](CCCCN)C(=O)N[C@@H]([C@@H](C)O)C(=O)N2)NC(=O)[C@H](CCCNC(=N)N)NC(=O)[C@H](CO)NC(=O)[C@H](CCCCN)NC(=O)[C@@H]2CCCN2C(=O)[C@H]([C@@H](C)CC)NC(=O)[C@H]([C@@H](C)O)NC(=O)[C@H](CC(=O)O)NC1=O [[EWSS]ShK] | 0.033 ± 0.007 nM | – | 4 fold | –
RSCIDTIPKSRCTAFQCKHSMKYRLSFCRKTCGTC [ShK] | – | – | – | 0.011 nM
